Results on 3 molecules are retold here after US20240376097A1, “BCL-2 Inhibitor” (BeiGene Ltd., priority 2020, published 2024).

The subject of series [1] is RS4;11 (BCL-2 dependent acute lymphoblastic leukemia cell line). The series is described as follows: RS4;11 Cell Proliferation Assay. It counts as cell-based. Particulars: Homo sapiens, RS4;11 cells, read-out: Cellular proliferation assay (IC50, nM) RS4. In a few lines: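 Viability measured via CellTiter-Glo luminescence after a 48 h, 37 °C exposure to compounds (10 points, highest 1 μM). Seeding was 50,000 RS4;11 cells per well in 10% FBS RPMI-1640; IC50 given as mean.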

The subject of series [2] is BCL-2 G101V knock-in cell line H96 (derive from RS4;11). The series is described as follows: Bcl 2-G101V Knock-In RS4;11 Cell Proliferation Assay. It counts as cell-based. Particulars: Homo sapiens, RS4-11, 48 h, RS4;11 Bcl-2 G101V knock-in clone H96, 48 hrs, CellTiter-GLO, read-out: Cellular proliferation assay (IC50, nM) RS4. In a few lines: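 CellTiter-Glo luminescence after 48 h, 37 °C compound treatment (10 concentrations, maximum 1 μM or 10 μM) gave mean IC50 values. Cells were 50,000 per well of H96, a BCL2-G101V knock-in single clone derived from RS4;11 by Cas9 editing.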

The nature of series [3]: Metabolic Stability Study, liver microsome incubation (human). The conditions noted are these: human liver microsomes 0.5 mg/mL, 1 μM compound, NADPH; for half-life at 1 μM: NA^# = very stable, beyond the detection limits, read-out: T1/2 (min) Human; for microsomal CLint at 1 μM: read-out: CLint (μL × min^−1 × mg^−1) Human. In kind it is in vitro ADME. Here is the method: (§1) Biological Example: Metabolic Stability Study
(§2) The metabolic stability of some compounds was evaluated by using the liver microsome incubation system in vitro. Briefly, the test compounds at 1 μM, were incubated with 0.5 mg/mL liver microsomes from different species (human, dog, rat and mouse) with an NADPH regenerating system at 37° C. Samples were quenched at three time points (0, 30, 60 min) with organic solvent containing internal standards, and the supernatant was analyzed for parent loss via LC-MS/MS. Midazolam was used as the positive control to validate the incubation system.
(§3) where Cprotein is the microsomal protein concentration in the incubation system.
(§4) The value of CLint and T1/2 of Example F132b in WO2019210818 and representative compounds of the disclosure were determined, and the results are shown in Table 5.

Series [4] in a line: Metabolic Stability Study, liver microsome incubation (mouse). In kind it is in vitro ADME. The conditions noted are these: mouse liver microsomes 0.5 mg/mL, 1 μM compound, NADPH; for half-life at 1 μM: NA^# = very stable, beyond the detection limits, read-out: T1/2 (min) mouse; for microsomal CLint at 1 μM: read-out: CLint (μL × min^−1 × mg^−1) mouse. The protocol:
as §1, §2, §3, §4

Bounds are passed on as bounds.

Take `COc1ccc(CN2CCN(C3CC4(CCN(c5ccc(C(=O)NS(=O)(=O)c6ccc(NC[C@H]7CC[C@](C)(O)CC7)c([N+](=O)[O-])c6)c(Oc6cnc7[nH]ccc7c6)c5)CC4)C3)C(c3ccccc3C(C)C)C2)cc1` (stereo partly shown) [Example 19, 2-((1H-pyrrolo[2,3-b]pyridin-5-yl)oxy)-N-((4-((((1r,4r)-4-hydroxy-4-methylcyclohexyl)methyl)amino)-3-nitrophenyl)sulfonyl)-4-(2-(2-(2-isopropylphenyl)-4-(4-methoxybenzyl)piperazin-1-yl)-7-azaspiro[3.5]nonan-7-yl)benzamide]: the IC50 in series [1] was found to be 0.33 nM; in series [2] it was 1.9 nM. Further, the figures for the half-life at 1 μM in series [3] and in series [4] were 1230 min and 292 min, respectively. Besides, the figures for the microsomal CLint at 1 μM in series [3] and in series [4] were 1.1 µL/min/mg and 4.7 µL/min/mg, respectively.
For `COc1cc(CN2CCN(C3CC4(CCN(c5ccc(C(=O)NS(=O)(=O)c6ccc(NC[C@H]7CC[C@](C)(O)CC7)c([N+](=O)[O-])c6)c(Oc6cnc7[nH]ccc7c6)c5)CC4)C3)C(c3ccccc3C(C)C)C2)cc(OC)c1` (stereo partly shown) [Example 49], the IC50 in series [1] is 0.49 nM; in series [2], 2.4 nM. Also, the half-life at 1 μM in series [3] was 93.4 min; in series [4] it was 205 min. In addition, the microsomal CLint at 1 μM is 14.8 µL/min/mg in series [3] and 6.7 µL/min/mg in series [4].
Regarding `CC(C)c1ccccc1[C@@H]1CN(Cc2ccc(OC3CC3)c(OC3CC3)c2)CCN1C1CC2(C1)CN(c1ccc(C(=O)NS(=O)(=O)c3ccc(NC[C@H]4CC[C@](C)(O)CC4)c([N+](=O)[O-])c3)c(Oc3cnc4[nH]cc(F)c4c3)c1)C2` [Example 363, 4-(6-((R)-4-(3,4-dicyclopropoxybenzyl)-2-(2-isopropylphenyl)piperazin-1-yl)-2-azaspiro[3.3]heptan-2-yl)-2-((3-fluoro-1H-pyrrolo[2,3-b]pyridin-5-yl)oxy)-N-((4-((((1r,4r)-4-hydroxy-4-methylcyclohexyl)methyl)amino)-3-nitrophenyl)sulfonyl) benzamide], the IC50 in series [1] amounted to 0.11 nM; in series [2], 0.14 nM. The microsomal CLint at 1 μM in series [3] and in series [4] was under 1 µL/min/mg in each case.
